Data from publication PMC3705751 (Evidence-based Complementary and Alternative Medicine : eCAM, 2013).
Where two headings read alike, the source gives them in different places.

Key:
[1] = test system: pandemic 2009 H1N1 influenza A virus; experiment: Plaque inhibition assay in MDCK cells; type: cell-based, Pandemic influenza A/Taiwan/CMUH/2009 (H1N1); settings: 72 h, read-out: Plaque inhibition IC50 values, Pandemic 2009 H1N1
[2] = Cytotoxic assay (MTT); settings: dog, MDCK cells
[3] = test system: seasonal 2007 H1N1 influenza A virus; experiment: microbe, parasite or virus in culture; type: cell-based; settings: read-out: Plaque inhibition IC50 values, Seasonal 2007 H1N1
[4] = molecular target: NA of PR8 H1N1 influenza A virus (Influenza A virus, UniProt P03468); experiment: NA enzymatic activity inhibition, fluorometric MUNANA assay; type: biochemical, Influenza A/Puerto Rico/8/34 (H1N1)
Chain of NA of PR8 H1N1 influenza A virus (P03468 whole entry): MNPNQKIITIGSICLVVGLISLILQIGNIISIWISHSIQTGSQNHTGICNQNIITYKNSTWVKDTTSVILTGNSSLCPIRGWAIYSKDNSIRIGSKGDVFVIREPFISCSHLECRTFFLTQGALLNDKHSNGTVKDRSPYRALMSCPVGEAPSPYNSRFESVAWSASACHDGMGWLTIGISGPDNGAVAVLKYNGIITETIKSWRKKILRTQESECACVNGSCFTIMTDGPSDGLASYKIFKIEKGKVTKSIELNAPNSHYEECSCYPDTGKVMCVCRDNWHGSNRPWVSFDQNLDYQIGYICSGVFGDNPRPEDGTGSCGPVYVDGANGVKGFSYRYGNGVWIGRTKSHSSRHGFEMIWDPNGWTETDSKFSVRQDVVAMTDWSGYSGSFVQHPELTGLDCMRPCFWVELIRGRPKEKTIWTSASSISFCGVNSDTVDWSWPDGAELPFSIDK
Text: Pandemic influenza A/Taiwan/CMUH/2009 (H1N1) (pandemic 2009 H1N1 virus), seasonal influenza A/Taiwan//CMUH/2007 (H1N1), 2009 (H1N1), and 2009 (H3N2) (seasonal 2007 H1N1, 2009 H1N1, and 2009 H3N2 influenza A viruses) were isolated in the clinical virology laboratory of China Medical University Hospital, Taiwan. Influenza A/Puerto Rico/8/34 (H1N1) (PR8 H1N1 virus) was kindly provided by Dr. Wei-Li Hsu (Institute of Microbiology and Public Health, National Chung-Hsing University). HA subtype of all influenza A viruses used was confirmed by RT-PCR or real-time RT-PCR with specific primers (see Supplementary Table 1 in the Supplementary Material available online at http://dx.doi.org/10.1155/2013/750803).
Fluorometric substrate 2′-(4-methylumbelliferyl)-α-D-N-acetylneuraminic acid (MUNANA; Sigma) was used to determine NA activity as described in a prior report. To determine NA activity of pandemic 2009 H1N1 and seasonal 2007 H1N1 viruses, serial 10-fold dilution of viruses (10^6 PFU/mL) was added to the wells of a 96-well plate, mixed with MUNANA solution at final concentration of 300 μM, and then incubated for 1 h at 37°C. Relative NA enzymatic activity was determined as the fluorescent intensity at a 360 nm excitation and a 460 nm emission wavelength (Multidetection Fluorescence-Luminescence Microplate Reader). […] Concentration of each extract or flavonoid showing 50% inhibitory effect (IC50) compared to the control with no inhibitor was determined by computer program (provided by John Spouge, National Institutes of Health).

[5] = test system: MDCK cells
[6] = in vitro; settings: dog
[7] = flavonoids, MUNANA substrate, read-out: NA inhibition IC50 values, PR8 H1N1

O=c1cc(-c2ccc(O)cc2)oc2cc(O)cc(O)c12 [Apigenin]
IC50 [1]: 94.16 ± 0.047 µM
CC50 at 48 h [2]: 218.34 ± 0.11 µM
IC50 ([3]; flavonoids, MDCK cells, 3 days): 119.61 ± 0.032 µM
IC50 [4]: 81.3 µM

MeOH
CC50 MDCK cells [5]: 923.12 ± 0.017 µg/mL

O=c1cc(-c2ccccc2)oc2cc(O)cc(O)c12 [Chrysin]
IC50 [1]: > 200 µM
CC50 [6]: 266.66 ± 0.077 µM
IC50 ([3]; Influenza A virus, MDCK, 72 h): > 200 µM
IC50 [4, 7]: 132 µM

O=C(O)[C@H]1O[C@@H](Oc2cc3oc(-c4ccccc4)cc(=O)c3c(O)c2O)[C@H](O)[C@@H](O)[C@@H]1O [Baicalin]
IC50 [1]: > 0.01 µM
CC50 [6]: 0.015 µM
IC50 ([3]; Influenza A virus, MDCK, 72 h): > 0.01 µM
IC50 [4, 7]: 2.75 µM

Chloroform
CC50 MDCK cells [5]: 829.77 ± 0.009 µg/mL

O=c1cc(-c2ccccc2)oc2cc(O)c(O)c(O)c12 [Baicalein]
IC50 [1]: 0.02 µM
CC50 at 48 h [2]: 0.045 ± 0.088 µM
IC50 ([3]; Influenza A virus, MDCK, 72 h): 0.018 µM
IC50 [4]: 0.181 µM
